Data published in article PMC10571957, “αV-Integrin-Dependent Inhibition of Glioblastoma Cell Migration, Invasion and Vasculogenic Mimicry by the uPAcyclin Decapeptide” (Cancers, 2023).

Legend:
[1] = tested on: U251-MG cells (αV integrin); assay: FITC-uPAcyclin receptor binding/competition, U251-MG; parameters: species or system human; details: unlabeled uPAcyclin vs FITC-uPAcyclin, 4 °C
Protocol: The U87-MG, U251-MG, and U138-MG cell lines were harvested and acid-treated, as described. Then, 2 × 10^6 cells/sample were exposed for 30 min at 4 °C to uPAcyclin or S-uPAcyclin at the indicated concentrations, or with the following antibodies: VNR147 monoclonal anti-αV integrin (Chemicon Int. Inc., Temecula, CA, USA), polyclonal anti-αV (Millipore, Burlington, MA, USA), monoclonal anti-α2 (Chemicon Int. Inc., Temecula, CA, USA), polyclonal anti-actin (Sigma-Aldrich, St. Louis, MO, USA), monoclonal anti-GAPDH (Abcam, Cambridge, UK), and purified vitronectin (VN, Corning, Glendale, AZ, USA). The cells were subsequently incubated with 50 nM FITC-uPAcyclin for 2 h at 4 °C, as described. At the end of incubation, the cells were washed and the cell surface-associated fluorescence was determined using a fluorimeter (VICTOR^TM X3-PerkinElmer, Waltham, MA, USA). All binding assays were performed three times, with duplicate samples, and analyzed as described in Section 2.11.
Figure 2 αV expression of U87-MG, U251-MG, and U138-MG GBM cells and specific binding of FITC-uPAcyclin. […] At the end of the incubation, the unbound material was washed and cell-associated FITC-uPAcyclin was quantitated by a fluorimeter. The net value of cell-surface-associated fluorescence, corresponding to the specific binding, is shown. […]

[2] = tested on: U87-MG cells; assay: Vasculogenic mimicry (tube formation on Geltrex), U87-MG; type: cell-based, human; details: for reduction in branching points: 24 h, Geltrex
Protocol: The tube formation assay was performed in 96-well plates pre-coated with 50 µL/well of Geltrex^TM (Thermofisher, Scientific, Waltham, MA, USA), and polymerized for 30 min at 37 °C. Briefly, 3 × 10^4 U87-MG, 1.5 × 10^4 U251, and 1 × 10^4 C6 cells/100µL/well were plated onto Geltrex^TM and monitored at 37 °C for the indicated times. The specific effectors were included at time 0. The formation of vascular-like structures by Geltrex^TM-plated U87-MG and U251-MG cells was monitored for 24 h, whereas C6 cells were tested for 16 h. The evaluation of the branching point number, defined as the intersection of at least 3 tubes [24], was performed using the Inverted Microscope DMI Leica 6000 for the U87-MG and U251-MG cells and the Inverted Microscope Axiovert 25 for the C6 cells. At the indicated times, the number of “branching points” was assessed in 4/5 random fields using the ImageJ 1.52a Software.
Figure 6 Vascular mimicry formation by U87-MG and effect of uPAcyclin. (A) Representative images of U87-MG cells pre-treated or not (untreated) for 40 min at 37 °C with uPAcyclin (1 nM and 100 nM) and then plated onto Geltrex^TM in multiwell-96 (3 × 10^4/well). As a control, cells were grown in the presence of DMEM/10% FBS (No matrix) or with Geltrex^TM (Untreated, Untd). Images are taken at 24 h using the Inverted Microscope DMI Leica 6000 with 50× total magnification, scale bar: 75 µm. (B) The quantitation of branching points, defined as the intersection of at least three tubes [24], was performed at 4, 8, and 24 h either in control cells and cells pre-treated for 40 min at 37 °C with 10 pM, 1 nM, and 100 nM uPAcyclin before plating onto Geltrex^TM. (C) U87-MG cells were pre-treated with uPAcyclin or with S-uPAcyclin, at the indicated concentrations, plated onto Geltrex^TM and, 24 h later, the number of branching points was evaluated and reported in the histogram (* p-value < 0.05; ** p-value < 0.005; *** p-value < 0.001).

Ac-K^1P[ESPPEELK^10]-NH2 (sidechain bridge or staple) [uPAcyclin]
Kdapp [1]: low nanomolar range
branching point number, in words ([2]; 10 pM, 10 nM (legend: 1 nM), 100 nM, U87-MG, 4, 8, 24 h): concentration-dependent reduction in the branching point number
reduction in branching points ([2]; 1 nM, U87-MG): approximately 60%
VM formation by time-lapse videomicroscopy, in words ([2]; 100 nM, U87-MG, 14 h, serum-free): inhibited and delayed
reduction in branching points ([2]; 100 nM, U87-MG): approximately 60%

Ac-PS[EELKPEPK]-NH2 (sidechain bridge or staple) [S-uPAcyclin, scrambled control peptide]
reduction in branching points ([2]; scrambled control, U87-MG): approximately 20%
